Patent publication US20030040485A1, “alpha/beta-adrenoceptors blockers and angiotensin converting enzyme inhibitors derived from hydroxyphenyl carboxylic acid and alcohol” (priority 2001, published 2003)

Tests used:
[1] = test system: blood pressure of normotensive male Wistar rats; assay: Heart rate and blood pressure in living rat (i.v., anaesthetized); assay type: in vivo; settings: maximal decrease, 2 mg/kg i.v.
From the text: Normotensive Male Wistar rats (NTRs), weighing 200˜300 g were abdominal anaesthetized with pentobarbital sodium. Tracheal was cannulated to maintain normal respiration. Polyethylene tube was inserted into the left femoral vein to facilitate drug administration. A 3-way stopcock was used, with one end comnected to a syringe for drug injection, while the other end was connected to the syringe filled with physiological saline. The latter was used to prevent residual drugs in the polyethylene tube after injection, which would affect experimental accuracy.
The right femoral artery was also inserted with polyethylene, and a 3-way stopcock was used tool, where one end was connected to heparin solution to prevent embolism. The other end was comnected to a Disposable Diaphragm Dome, TA1019, and linked to a pressure transducer (Model P10EZ; Spectramed, Oxnard, Calif., USA). Through an amplifier, a recorder recorded the overall and average arterial pressure; heart rate to evaluate the effect of drug on blood pressure and heart rate. Different concentrations 0.1, 1.0, 2.0, 3.0 mg/kg of test compounds were given to the rats via femoral vein and the differences in the heart rate and blood pressure were compared. Table 2 shown maximal decrease of blood pressure affect of compounds after given 2.0 mg/kg test compounds to the rats.

[2] = molecular target: β1-adrenoceptor (left atrium) (Rattus norvegicus, UniProt P18090); assay: β1-adrenoceptor antagonism, left atrium, pA2; settings: Schild plot, mean ± SEM of six to eight experiments
Chain of β1-adrenoceptor (left atrium) (P18090 whole entry): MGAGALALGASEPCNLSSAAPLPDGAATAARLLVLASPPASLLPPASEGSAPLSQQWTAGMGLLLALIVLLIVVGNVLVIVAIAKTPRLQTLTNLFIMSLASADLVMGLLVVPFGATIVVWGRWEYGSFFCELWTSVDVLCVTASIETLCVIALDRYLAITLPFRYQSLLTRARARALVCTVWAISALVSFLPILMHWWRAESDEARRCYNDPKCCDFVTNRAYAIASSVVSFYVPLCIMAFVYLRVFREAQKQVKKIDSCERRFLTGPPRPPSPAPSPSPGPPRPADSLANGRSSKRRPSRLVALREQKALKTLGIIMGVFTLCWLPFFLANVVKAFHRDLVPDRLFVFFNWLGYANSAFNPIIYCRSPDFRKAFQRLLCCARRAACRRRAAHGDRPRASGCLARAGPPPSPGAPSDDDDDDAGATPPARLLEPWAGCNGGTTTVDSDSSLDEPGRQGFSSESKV

α1-adrenoceptor (aorta) = assay: α-adrenoceptor antagonism, isolated rat aorta, pA2 vs norepinephrine; design: species or system Wistar rat; settings: Schild plot, mean ± SEM of six to eight experiments
Method: Vascular α-adrenoceptor blocking activity was evaluated in the Wistar rat aorta preparation. Isolated rat aorta preparations were mounted in organ bath and suspended in Krebs solution at 37° C. […] or 75 mM KCl was added to the bath medium after a control concentration-response curve to norepinephrine had been obtained. The tissue was exposed to test compounds for 30 min before rechallenging with norepinephrine. Inhibitions were expressed as percentages of the maximum contraction obtained by the challenge of the tissues with norepinephrine. The 70 mM NaCl on 75 mM KCl solution may to replace with equimolar KCl, if necessary.
The methods published by Huang Y C. et. al. in J Cardiovasc Pharmacol.34, pp.10-20 (1999) and Drug Devel Res. 47, 77-89 (1999). Through referenced and modified method to evaluate, test compounds whether have α1-adrenergic and sertoninergic effect.
Isolated Wistar rat aorta preparations were mounted in organ bath and suspended in Krebs solution (NaCl, 118 mM, KCl, 4.8 mM; CaCl,2.5 mM; MgSO4,1.2 mM; K2PO4,1.2 Mm; […] Mm; glucose, 11 mM) at 37° C. under 1 g resting tension.
Upon balancing for 60 minutes, 10^−10-10^−4 M norepinephrine is administered directly from low concentration to high using 0.5 log unit to gradually increase until the maximum reaction is reached, and this act as the control unit. Then different concentrations of the synthetic testing compounds, 10^−7 M, 10^−6 M, or 10^−5M, are used, and upon 30 minutes of reaction, norepinephrine is used again to complete the cumulative dose. The EC50 value of blocking […] may be obtained from observation of the suppressing effects caused by different concentrations of the synthetic testing compound.
The equation is as follows: […]

[3] = molecular target: T1, angiotensin converting enzyme (ACE) (Rattus norvegicus, UniProt P47820); assay: ACE activity value on tissue (rat lung membrane, Hip-His-Leu, fluorometric); assay type: biochemical; settings: mean of three samples
T1 construct: Centrifuged 250-300 mg lung tissue; from tissue; host or cells: rat lung membrane fraction
T1 sequence (P47820 36-1313): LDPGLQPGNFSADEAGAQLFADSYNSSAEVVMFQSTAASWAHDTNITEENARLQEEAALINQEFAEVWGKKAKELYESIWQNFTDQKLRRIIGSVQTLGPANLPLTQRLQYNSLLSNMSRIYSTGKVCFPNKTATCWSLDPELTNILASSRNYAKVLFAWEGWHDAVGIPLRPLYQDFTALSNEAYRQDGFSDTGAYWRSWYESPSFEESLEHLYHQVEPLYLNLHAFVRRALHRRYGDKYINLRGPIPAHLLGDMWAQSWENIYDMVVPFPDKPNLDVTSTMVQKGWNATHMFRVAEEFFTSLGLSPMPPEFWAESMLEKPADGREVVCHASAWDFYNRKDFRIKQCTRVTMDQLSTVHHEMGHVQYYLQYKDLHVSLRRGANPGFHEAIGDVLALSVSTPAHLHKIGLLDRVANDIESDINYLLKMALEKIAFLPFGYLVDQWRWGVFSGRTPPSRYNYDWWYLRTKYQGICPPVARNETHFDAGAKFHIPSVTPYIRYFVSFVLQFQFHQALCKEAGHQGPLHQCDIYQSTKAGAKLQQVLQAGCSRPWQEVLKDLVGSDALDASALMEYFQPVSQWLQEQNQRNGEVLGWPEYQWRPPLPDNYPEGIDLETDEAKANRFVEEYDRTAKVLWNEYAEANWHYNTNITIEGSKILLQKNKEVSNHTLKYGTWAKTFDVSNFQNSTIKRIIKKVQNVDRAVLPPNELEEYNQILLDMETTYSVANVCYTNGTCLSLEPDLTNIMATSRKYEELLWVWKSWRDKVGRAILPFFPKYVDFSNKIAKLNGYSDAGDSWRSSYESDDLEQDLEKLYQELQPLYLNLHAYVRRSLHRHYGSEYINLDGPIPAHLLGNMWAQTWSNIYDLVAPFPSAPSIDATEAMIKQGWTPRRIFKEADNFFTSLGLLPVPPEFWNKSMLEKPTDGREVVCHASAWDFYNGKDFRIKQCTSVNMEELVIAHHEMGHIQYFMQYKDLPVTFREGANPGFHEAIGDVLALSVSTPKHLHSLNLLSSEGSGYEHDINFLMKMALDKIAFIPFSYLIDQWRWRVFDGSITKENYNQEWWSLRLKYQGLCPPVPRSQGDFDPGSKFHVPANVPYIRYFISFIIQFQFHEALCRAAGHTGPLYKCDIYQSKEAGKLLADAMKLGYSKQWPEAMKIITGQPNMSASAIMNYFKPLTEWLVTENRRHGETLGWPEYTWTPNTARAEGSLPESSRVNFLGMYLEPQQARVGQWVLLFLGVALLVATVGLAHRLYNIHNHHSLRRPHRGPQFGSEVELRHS
Method: Centrifuged 250-300 mg lung tissue, 3 ml extracted liquid (10 mmol/L HEPES, 125 mmol/L NaCl, pH7.4) under 12000 g for 20 minutes at 4° C. by Teflon-glass homogenizer, the cell membrane was obtained. The 3 ml homogenized liquid was added into twice, before and after centrifuged. Then the Lowry's method was adopted to determine the protein content in the membrane. Mixing 15 minute of liquid and 30 mmol/L Hip-His-Leu solution at 37° C. Fluorometric was used to determine the Hippurate content. test compounds (10^−8M, 10^−7M, 10^−6M) dissolved in PBS normal saline and used as control group. Then ACE activity inhibition rate was determined.

| SMILES | Decrease of blood pressure [1] | β1 pA2 value, Left atrium [2] | α1 pA2 value, Aorta (α1-adrenoceptor (aorta)) | Inhibitory activity of ACE, In Rat lung ([3]; 10^−6M) | Inhibitory activity of ACE, In Rat lung ([3]; 10^−7M) | Inhibitory activity of ACE, In Rat lung ([3]; 10^−8M) |
| --- | --- | --- | --- | --- | --- | --- |
| CCOC(=O)C(CCc1ccc(OCC(O)CNCCOc2ccccc2OC)cc1)NC(C)C(=O)N1CCCC1C(=O)O (mixture of isomers) [compound 6, Labetapril] | 65 ± 9.2 mmHg | 5.31 | 6.93 | 84% | 72% | 33% |
| CCOC(=O)C(CCc1ccccc1)NC(C)C(=O)N1CCCC1C(=O)OCc1ccc(OCC(O)CNC(C)(C)C)c(OC)c1 (centres unmarked) [compound 7, Vanynolpril] | 55 ± 6.3 mmHg | 5.78 | – | 81% | 68% | 31% |
